Measured values published in PMC12395807, “Chemoreceptor family in plant-associated bacteria responds preferentially to the plant signal molecule glycerol 3-phosphate” (Genome Biology, 2025).

What was measured:
[1] = test system: Pectobacterium atrosepticum SCRI1043; experiment: Growth experiment, sole carbon source; type: cell-based; details: PFM9 minimal medium, 5 mM ligand, 30 °C, 48 h
Protocol: P. atrosepticum SCRI1043 was cultured overnight in phosphate-free M9-based medium (PFM9) supplemented with 20 mM glucose as the carbon source and 500 µM inorganic phosphate as the phosphate source. Cultures were washed and then diluted to an OD600 of 0.02 in PFM9 supplemented with different PacP ligands as the sole carbon or phosphorous source at a final concentration of 5 mM. Subsequently, 200 µL aliquots of these cultures were transferred into microwell plates, which were subsequently grown at 30 °C on a Bioscreen microbiological growth analyzer (Oy Growth Curves Ab Ltd., Helsinki, Finland) for 48 h.

[2] = molecular target: LBD of chemoreceptor R2 (WP_136157342.1) (Brenneria roseae, UniProt A0A2U1TV64, H128N/K136R); type: binding; details: ITC, 20 °C, R2 LBD; Nb = no binding
Sequence of LBD of chemoreceptor R2 (WP_136157342.1) (A0A2U1TV64 28-178 H128N/K136R): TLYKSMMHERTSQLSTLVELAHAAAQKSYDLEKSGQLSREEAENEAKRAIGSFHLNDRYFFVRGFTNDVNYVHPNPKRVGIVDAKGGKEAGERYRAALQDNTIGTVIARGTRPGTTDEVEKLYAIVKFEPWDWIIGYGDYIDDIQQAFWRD
Protocol: (§1) Plasmids for the overexpression of the different proteins were transformed into E. coli BL21(DE3). The resulting strains were grown under continuous stirring (200 rpm) at 30 °C in 2-L Erlenmeyer flasks containing 500 mL of LB medium supplemented with 50 μg/mL kanamycin. At an OD660 of 0.5, protein expression was induced by the addition of 0.1 mM isopropyl β-D-1-thiogalactopyranoside. Growth was continued at 16 °C overnight prior to cell harvesting by centrifugation at 10,000 × g for 20 min. Cell pellets were resuspended in buffer A (Additional file 2: Table S4) and subsequently broken by French press treatment at 62.5 lb/in^2. After centrifugation at 20,000 × g for 30 min, the supernatants were loaded onto 5-mL HisTrap HP columns (Amersham Biosciences) equilibrated with buffer A, and the proteins were eluted with a linear gradient of buffer B (Additional file 2: Table S4). All proteins contain a hexa-histidine tag at the N-terminal extension (Additional file 2: Table S3) and were purified at 4 °C. The purified proteins were dialyzed overnight into the corresponding analysis buffers (Additional file 2: Table S4) for immediate analysis.
All experiments were conducted on a VP microcalorimeter (Microcal, MA) at 15 °C for PacP-LBD and at 20 °C for the remaining proteins. Proteins were dialyzed into the analysis buffers specified in Additional file 2: Table S4, placed into the sample cell and titrated with aliquots of ligand solutions (1 to 10 mM) freshly prepared in dialysis buffer. The mean enthalpies measured from the injection of the ligands into the analysis buffer were subtracted from the raw titration data prior to data analysis with the MicroCal version of ORIGIN. The data were fitted with the “One binding site model” of ORIGIN.

[3] = test system: R3 LBD (WP_006464688.1); experiment: Thermal shift ligand screening of R3; type: binding, Herbaspirillum frisingense; details: thermal shift assay, R3, arrays PM1, PM2A, PM3B, PM4A
Protocol: Assays were carried out on a MyIQ2 Real-Time PCR instrument (Bio-Rad, Hercules, CA, USA). Ligand solutions were prepared by dissolving the array compounds in 50 µL of Milli-Q water, which, according to the manufacturer, corresponds to a concentration of 10–20 mM. Freshly purified proteins were dialyzed into analysis buffer (Additional file 2: Table S4). Compound arrays PM1, PM2A (carbon sources), PM3B (nitrogen sources), and PM4A (phosphorus and sulfur sources) from Biolog (https://www.biolog.com/) were used. The compositions of these arrays are provided in Additional file 2: Table S1. The experiments were conducted in 96-well plates, and each assay mixture contained 20 µL of the dialyzed protein (at 80–50 µM), 2 µL of 5 × SYPRO orange (Life Technologies, Eugene, Oregon, USA), and 2.5 µL of the resuspended array compound or the equivalent amount of buffer in the ligand-free control. The samples were heated from 23 to 85 °C at a scan rate of 1 °C/min. The protein unfolding curves were monitored by detecting changes in SYPRO® Orange fluorescence. The Tm values were determined from the first derivative values of the raw fluorescence data.

[4] = test system: PacP-LBD mutant (Y86, H100, R105, Y121, K148 and Y167 replaced by alanine); experiment: ITC binding to PacP-LBD binding site motif mutant; design: species or system Pectobacterium atrosepticum; details: 36 μM PacP-LBD alanine mutant; 1 mM glycerol 3-phosphate, 2.5 mM glyceraldehyde 3-phosphate
Protocol: as §1, with “The purified proteins were dialyzed overnight into the corresponding analysis buffers (Additional file 2: Table S4) for immediate analysis.” left out
All experiments were conducted on a VP microcalorimeter (Microcal, MA) at 15 °C for PacP-LBD and at 20 °C for the remaining proteins. […] The mean enthalpies measured from the injection of the ligands into the analysis buffer were subtracted from the raw titration data prior to data analysis with the MicroCal version of ORIGIN. […]

O=P(O)(O)OCC(O)CO (stereo not shown) [glycerol 3-phosphate]
growth as sole carbon source [1]: supported growth
KD [2]: showed binding
Tm change [3]: significant increases in the Tm
binding in microcalorimetric titration [4]: absence of binding
